Data on four compounds can be found in the NIST ThermoML archive (doi:10.1021/je060469v).

Data set [1] is described as follows: refractive index (Na D-line) (dimensionless). As to conditions: 298.15 K; 101.33 kPa; Liquid; Standard Abbe refractometry.
For data set [2] the following is noted: Liquid; for mass density: 298.15 K, 101.33 kPa.

± gives the expanded uncertainty stated by the source.

Turning to `CCCC(=O)OC` [methyl butanoate], in data set [1], the refractive index came to 1.3847 ± 0.0007. In addition, the mass density in data set [2] is recorded as 892.16 ± 0.34 kg/m3. For the same compound, the “vapor or sublimation pressure” value in data set [2] (372.31 K) stood at 93.32 ± 1.9 kPa.

As to `CCCCCC(=O)OC` [methyl hexanoate], the refractive index in data set [1] amounted to 1.4048 ± 0.0007. In addition, the mass density in data set [2] came to 879.47 ± 0.36 kg/m3. Moreover, in data set [2] (419.67 K), the “vapor or sublimation pressure” value came out at 93.32 ± 2.4 kPa.

For `CCCCC(=O)OC` [methyl pentanoate], in data set [1], the refractive index is 1.3971 ± 0.0007. Moreover, in data set [2], the mass density came out at 884.8 ± 0.35 kg/m3. Moreover, the “vapor or sublimation pressure” value in data set [2] (396.65 K) worked out at 93.32 ± 2.4 kPa.

Take `CCC#N` [propanenitrile]: the refractive index in data set [1] worked out at 1.36368 ± 0.00073. Also, the mass density in data set [2] amounted to 776.85 ± 0.51 kg/m3. Also, the “vapor or sublimation pressure” value in data set [2] (367.78 K) was found to be 93.32 ± 1.9 kPa.
